Measured values as given in patent publication US6506772B1, “Substituted [1,2,4]triazolo[1,5a]pyridine derivatives with activity as adenosine receptor ligands” (Hoffmann-La Roche Inc., priority 2000, dated 2003).
pKi: −log10 of the molar value. Read-outs that look alike come from different tables or passages of the source.

Columns and labels:
[1] = molecular target: T1, human adenosine A2A receptor (Homo sapiens, UniProt P29274); assay: Human adenosine A2A receptor [3H]-SCH-58261 binding assay
T1 construct: expressed in transfected cells; host or cells: CHO cells, Semliki Forest virus expression system; membrane preparation
T1 sequence (P29274 whole entry): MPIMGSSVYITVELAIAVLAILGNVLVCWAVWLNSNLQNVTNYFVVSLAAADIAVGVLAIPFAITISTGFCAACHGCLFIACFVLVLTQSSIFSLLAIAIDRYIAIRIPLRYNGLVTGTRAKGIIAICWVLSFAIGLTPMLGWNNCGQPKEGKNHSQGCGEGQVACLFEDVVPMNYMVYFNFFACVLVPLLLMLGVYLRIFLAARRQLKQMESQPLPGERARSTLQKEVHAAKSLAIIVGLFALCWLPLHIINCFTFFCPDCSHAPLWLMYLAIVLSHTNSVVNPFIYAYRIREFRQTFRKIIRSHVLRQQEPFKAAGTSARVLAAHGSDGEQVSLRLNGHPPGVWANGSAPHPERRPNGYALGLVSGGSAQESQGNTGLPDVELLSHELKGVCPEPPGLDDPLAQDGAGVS

HA1 adenosine receptor = molecular target: T2, HA1 adenosine receptor (Homo sapiens, UniProt P30542); assay: Human adenosine A1 receptor affinity (Ki hA1); type: binding
T2 sequence (P30542 1-326): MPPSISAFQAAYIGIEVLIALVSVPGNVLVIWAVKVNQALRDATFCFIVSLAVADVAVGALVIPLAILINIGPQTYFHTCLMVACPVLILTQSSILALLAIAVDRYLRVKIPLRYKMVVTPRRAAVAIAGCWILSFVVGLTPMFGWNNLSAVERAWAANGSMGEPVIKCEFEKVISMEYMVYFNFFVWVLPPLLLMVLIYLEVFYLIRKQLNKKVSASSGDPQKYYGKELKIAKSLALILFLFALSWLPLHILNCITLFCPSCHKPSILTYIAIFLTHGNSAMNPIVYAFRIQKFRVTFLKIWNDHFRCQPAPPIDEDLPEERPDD

[2] = affinity to human adenosine A2A receptor, read-out: Ki HA2A
[3] = calculated ratio of the affinity to the HA1 receptor to the HA2a receptor
[4] = affinity to human adenosine A1 receptor
[5] = recombinant human A2A in CHO cell membranes, [3H]-SCH-58261, Cheng-Prussoff, read-out: Ki hA2A

SMILES | pKi [1, 2] | selectivity (A1/A2a) [1, 3] | pKi (HA1 adenosine receptor; [4]) | selectivity (A1/A2a) ([1]; ratio KiHA1 divided by KiHA2A) | pKi [1, 5] | pKi (HA1 adenosine receptor)
COc1ccc(-c2nc3cc(C(=O)NCc4ccccc4Cl)cc(N)n3n2)s1 [Example 56, 5-Amino-2-(5-methoxy-thiophen-2-yl)-[1,2,4]triazolo[1,5-a]pyridine-7-carboxylic acid 2-chloro-benzylamide] | 7.09 | 1.1 | 7.06 | – | – | –
COc1ccc(-c2nc3cc(C(=O)N(Cc4ccccc4)Cc4ccccc4)cc(N)n3n2)s1 [Example 51, 5-Amino-2-(5-methoxy-thiophen-2-yl)-[1,2,4]triazolo[1,5-a]pyridine-7-carboxylic acid dibenzylamide] | 7.65 | 5.8 | 6.89 | – | – | –
Cc1ccc(-c2nc3cc(C(=O)NCc4ccccc4Cl)cc(N)n3n2)s1 [Example 199, 5-Amino-2-(5-methyl-thiophen-2-yl)-[1,2,4]triazolo[1,5-a]pyridine-7-carboxylic acid 2-chloro-benzylamide] | 7.52 | 1.2 | 7.43 | – | – | –
Nc1cc(C(=O)NC2CCc3ccccc32)cc2nc(-c3ccccc3)nn12 (stereo not drawn) [Example 149, 5-Amino-2-phenyl-[1,2,4]triazolo[1,5-a]pyridine-7-carboxylic acid indan-1-ylamide] | 7.24 | 1.7 | 7.01 | – | – | –
CCCCNC(=O)c1cc(N)n2nc(-c3ccccn3)nc2c1 [Example 49, 5-Amino-2-pyridin-2-yl-[1,2,4]triazolo[1,5-a]pyridine-7-carboxylic acid butylamide] | 7.46 | 7.1 | 6.62 | – | – | –
Nc1cc(C(=O)N2CCCC2)cc2nc(-c3ccoc3)nn12 [Example 99, (5-Amino-2-furan-3-yl-[1,2,4]triazolo[1,5-a]pyridin-7-yl)-pyrrolidin-1-yl-methanone] | 6.63 | 26.2 | 5.22 | – | – | –
CCCCNC(=O)c1cc(N)n2nc(-c3ccc(C)o3)nc2c1 [Example 137, 5-Amino-2-(5-methyl-furan-2-yl)-[1,2,4]triazolo[1,5-a]pyridine-7-carboxylic acid butylamide] | 7.96 | 19.8 | 6.66 | – | – | –
Nc1cc(C(=O)NCc2ccccc2Cl)cc2nc(-c3ccccn3)nn12 [Example 39, 5-Amino-2-pyridin-2-yl-[1,2,4]triazolo[1,5-a]pyridine-7-carboxylic acid 2-chloro-benzylamide] | 7.77 | 4.2 | 7.16 | – | – | –
Cc1ccsc1-c1nc2cc(C(=O)N3CCCCC3)cc(N)n2n1 [Example 189, [5-Amino-2-(3-methyl-thiophen-2-yl)-[1,2,4]triazolo[1,5-a]pyridin-7-yl]-piperidin-1-yl-methanone] | 6.57 | 2.9 | 6.12 | – | – | –
CCCCNC(=O)c1cc(N)n2nc(-c3cccnc3)nc2c1 [Example 80, 5-Amino-2-pyridin-3-yl-[1,2,4]triazolo[1,5-a]pyridine-7-carboxylic acid butylamide] | 6.55 | 13.4 | 5.42 | – | – | –
CC(C)N(Cc1ccccc1)C(=O)c1cc(N)n2nc(-c3cccn3C)nc2c1 [Example 135, 5-Amino-2-(1-methyl-1H-pyrrol-2-yl)-[1,2,4]triazolo[1,5-a]pyridine-7-carboxylic acid benzyl-isopropyl-amide] | 6.78 | 10.9 | 5.74 | – | – | –
COc1ccccc1CNC(=O)c1cc(N)n2nc(-c3ccccc3)nc2c1 [Example 220, 5-Amino-2-phenyl-[1,2,4]triazolo[1,5-a]pyridine-7-carboxylic acid 2-methoxy-benzylamide] | 7.53 | 1.7 | 7.32 | – | – | –
Cc1ccc(-c2nc3cc(C(=O)N(C)C4CCCCC4)cc(N)n3n2)o1 [Example 100, 5-Amino-2-(5-methyl-furan-2-yl)-[1,2,4]triazolo[1,5-a]pyridine-7-carboxylic acid cyclohexyl-methyl-amide] | 7.81 | 34.1 | 6.28 | – | – | –

The remaining lines, values ahead:

pKi [1, 2] | selectivity (A1/A2a) [1, 3] | pKi (HA1 adenosine receptor; [4]) | selectivity (A1/A2a) ([1]; ratio KiHA1 divided by KiHA2A) | pKi [1, 5] | pKi (HA1 adenosine receptor) | SMILES
7.52 | 5.4 | 6.79 | – | – | – | COc1ccccc1CNC(=O)c1cc(N)n2nc(-c3ccoc3)nc2c1 [Example 228, 5-Amino-2-furan-3-yl-[1,2,4]triazolo[1,5-a]pyridine-7-carboxylic acid 2-methoxy-benzylamide]
– | – | – | 32.9 | 8.54 | 7.02 | CCC1CCC(C)N(C(=O)c2cc(N)n3nc(-c4ccc(Br)o4)nc3c2)C1 (stereo not drawn) [Example 393, [5-Amino-2-(5-bromo-furan-2-yl)-[1,2,4]triazolo[1,5-a]pyridin-7-yl]-(5-ethyl-2-methyl-piperidin-1-yl)-methanone]
7.07 | 48.5 | 5.38 | – | – | – | C#CCN(C)C(=O)c1cc(N)n2nc(-c3nccs3)nc2c1 [Example 282, 5-Amino-2-thiazol-2-yl-[1,2,4]triazolo[1,5-a]pyridine-7-carboxylic acid methyl-prop-2-ynyl-amide]
7.31 | 9.9 | 6.31 | – | – | – | CCN(CC)CCN(CC)C(=O)c1cc(N)n2nc(-c3ccc(Br)o3)nc2c1 [Example 309, 5-Amino-2-(5-bromo-furan-2-yl)-[1,2,4]triazolo[1,5-a]pyridine-7-carboxylic acid (2-diethylamino-ethyl)-ethyl-amide]
8.55 | 41.6 | 6.93 | – | – | – | C=CCN(CC=C)C(=O)c1cc(N)n2nc(-c3ccc(Br)o3)nc2c1 [Example 274, 5-Amino-2-(5-bromo-furan-2-yl)-[1,2,4]triazolo[1,5-a]pyridine-7-carboxylic acid diallylamide]
7.49 | 91.8 | 5.53 | – | – | – | CC1CCCN1C(=O)c1cc(N)n2nc(-c3nccs3)nc2c1 (stereo not drawn) [Example 286, (5-Amino-2-thiazol-2-yl-[1,2,4]triazolo[1,5-a]pyridin-7-yl)-(2-methyl-pyrrolidin-1-yl)-methanone]
– | – | – | 16.5 | 7.00 | 5.78 | C=CCN(C)C(=O)c1cc(N)n2nc(-c3ccccn3)nc2c1 [Example 409, 5-Amino-2-pyridin-2-yl-[1,2,4]triazolo[1,5-a]pyridine-7-carboxylic acid allyl-methyl-amide]
8.19 | 42.7 | 6.56 | – | – | – | CCN(C)C(=O)c1cc(N)n2nc(-c3ccc(Br)o3)nc2c1 [Example 264, 5-Amino-2-(5-bromo-furan-2-yl)-[1,2,4]triazolo[1,5-a]pyridine-7-carboxylic acid ethyl-methyl-amide]
8.25 | 16.8 | 7.03 | – | – | – | CCCCCN(C)C(=O)c1cc(N)n2nc(-c3ccc(Br)o3)nc2c1 [Example 278, 5-Amino-2-(5-bromo-furan-2-yl)-[1,2,4]triazolo[1,5-a]pyridine-7-carboxylic acid methyl-pentyl-amide]
7.62 | 21.9 | 6.28 | – | – | – | CN(C)C(=O)c1cc(N)n2nc(-c3ccc(Br)o3)nc2c1 [Example 293, 5-Amino-2-(5-bromo-furan-2-yl)-[1,2,4]triazolo[1,5-a]pyridine-7-carboxylic acid dimethylamide]
8.19 | 28.6 | 6.74 | – | – | – | CC1CCN(C(=O)c2cc(N)n3nc(-c4ccc(Br)o4)nc3c2)CC1 [Example 337, [5-Amino-2-(5-bromo-furan-2-yl)-[1,2,4]triazolo[1,5-a]pyridin-7-yl]-(4-methyl-piperidin-1-yl)-methanone]
8.49 | 40.3 | 6.89 | – | – | – | CCCCN(CC)C(=O)c1cc(N)n2nc(-c3ccc(Br)o3)nc2c1 [Example 277, 5-Amino-2-(5-bromo-furan-2-yl)-[1,2,4]triazolo[1,5-a]pyridine-7-carboxylic acid butyl-ethyl-amide]
– | – | – | 24.8 | 7.11 | 5.72 | Nc1cc(C(=O)N2CCC3CCCCC3C2)cc2nc(-c3nccs3)nn12 (stereo not drawn) [Example 380, (5-Amino-2-thiazol-2-yl-[1,2,4]triazolo[1,5-a]pyridin-7-yl)-(octahydro-isoquinolin-2-yl)-methanone]
7.72 | 24.0 | 6.34 | – | – | – | CCN(C)C(=O)c1cc(N)n2nc(-c3ccc(Cl)o3)nc2c1 [Example 250, 5-Amino-2-(5-chloro-furan-2-yl)-[1,2,4]triazolo[1,5-a]pyridine-7-carboxylic acid ethyl-methyl-amide]
– | – | – | 98 | 8.08 | 6.09 | CN(C)C(=O)C1CCCN1C(=O)c1cc(N)n2nc(-c3ccc(Br)o3)nc2c1 (stereo not drawn) [Example 390, 1-[5-Amino-2-(5-bromo-furan-2-yl)-[1,2,4]triazolo[1,5-a]pyridine-7-carbonyl]-pyrrolidine-2-carboxylic acid dimethylamide]
8.80 | 44.8 | 7.14 | – | – | – | C=CCN(C(=O)c1cc(N)n2nc(-c3ccc(Br)o3)nc2c1)C1CCCC1 [Example 344, 5-Amino-2-(5-bromo-furan-2-yl)-[1,2,4]triazolo[1,5-a]pyridine-7-carboxylic acid allyl-cyclopentyl-amide]
